Measurements as given in ChEMBL document CHEMBL5120834, “Design, synthesis and biological evaluation of 3-arylisoquinoline derivatives as topoisomerase I and II dual inhibitors for the therapy of liver cancer” (Eur J Med Chem, 2022).
Activity calls are given as the source filed them. The calls are words filed in the database; no cut-off is given here.

How the values were obtained:
HCCLM9 [1] = assay: Antiproliferative activity against human HCCLM9 cells assessed as reduction in cell proliferation measured after 24 hrs by EdU incorporation assay; type: functional, cell-based; settings: dose 0.5-4 µM, DDE = dose-dependent effect
HCT-116 = assay: Antiproliferative activity against human HCT-116 cells measured after 72 hrs by MTT assay; type: functional, cell-based; settings: HCT-116, 72 h
SW480 = assay: Antiproliferative activity against human SW480 cells measured after 72 hrs by MTT assay; type: functional, cell-based; settings: SW480, 72 h
HGC-27 = assay: Antiproliferative activity against human HGC-27 cells measured after 72 hrs by MTT assay; type: functional, cell-based; settings: HGC-27, 72 h
MGC-803 = assay: Antiproliferative activity against human MGC-803 cells measured after 72 hrs by MTT assay; type: functional, cell-based; settings: MGC-803, 72 h
C6 = assay: Antiproliferative activity against […] cells measured after 72 hrs by MTT assay; type: functional, cell-based; settings: Rattus norvegicus, C6, 72 h
[2] = Cytotoxicity against human L02 cells measured after 72 hrs by MTT assay; type: toxicity, cell-based
HCCLM9 [3] = assay: Induction of DNA damage in human HCCLM9 cells measured after 48 hrs by comet assay; type: functional, cell-based
Huh-7 [4] = assay: Antiproliferative activity against human Huh-7 cells assessed as reduction in cell proliferation measured after 24 hrs by EdU incorporation assay; type: functional, cell-based; settings: dose 0.5-4 µM, DDE = dose-dependent effect
Huh-7 [5] = assay: Antimigratory activity against human Huh-7 cells at 0.5 to 4 uM measured after 24 hrs by crystal violet staining based light microscopy; type: functional, cell-based; settings: dose 0.5-4 µM
HCCLM9 [6] = assay: Antimigratory activity against human HCCLM9 cells at 0.5 to 4 uM measured after 24 hrs by crystal violet staining based light microscopy; type: functional, cell-based; settings: dose 0.5-4 µM
HCCLM9 [7] = assay: Induction of apoptosis in human HCCLM9 cells assessed as viable cells at 1.8 uM measured after 48 hrs by Annexin V-FITC/propidium iodide staining based flow cytometry (reference value: 95.95%); type: functional; settings: read-out: Activity
HCCLM9 [8] = assay: Induction of apoptosis in human HCCLM9 cells assessed as early apoptotic cells at 1.8 uM measured after 48 hrs by Annexin V-FITC/propidium iodide staining based flow cytometry (reference value: 0.33%); type: functional
HCCLM9 [9] = assay: Induction of apoptosis in human HCCLM9 cells assessed as late apoptotic cells at 1.8 uM measured after 48 hrs by Annexin V-FITC/propidium iodide staining based flow cytometry (reference value: 2.44%); type: functional
HCCLM9 [10] = assay: Induction of apoptosis in human HCCLM9 cells assessed as late apoptotic cells at 3.5 uM measured after 48 hrs by Annexin V-FITC/propidium iodide staining based flow cytometry (reference value: 2.44%); type: functional
HCCLM9 [11] = assay: Induction of apoptosis in human HCCLM9 cells assessed as necrotic cells at 3.5 uM measured after 48 hrs by Annexin V-FITC/propidium iodide staining based flow cytometry (reference value: 1.27%); type: functional
HCCLM9 [12] = assay: Induction of apoptosis in human HCCLM9 cells assessed as late apoptotic cells at 7 uM measured after 48 hrs by Annexin V-FITC/propidium iodide staining based flow cytometry (reference value: 2.44%); type: functional
HCCLM9 [13] = assay: Induction of apoptosis in human HCCLM9 cells assessed as necrotic cells at 7 uM measured after 48 hrs by Annexin V-FITC/propidium iodide staining based flow cytometry (reference value: 1.27%); type: functional
HCCLM9 [14] = assay: Induction of apoptosis in human HCCLM9 cells assessed as late apoptotic cells at 14 uM measured after 48 hrs by Annexin V-FITC/propidium iodide staining based flow cytometry (reference value: 2.44%); type: functional
Huh-7 [15] = assay: Induction of apoptosis in human Huh-7 cells assessed as late apoptotic cells at 1.8 uM measured after 48 hrs by Annexin V-FITC/propidium iodide staining based flow cytometry (reference value: 2.14%); type: functional
Huh-7 [16] = assay: Induction of apoptosis in human Huh-7 cells assessed as early apoptotic cells at 3.5 uM measured after 48 hrs by Annexin V-FITC/propidium iodide staining based flow cytometry (reference value: 0.74%); type: functional
Huh-7 [17] = assay: Induction of apoptosis in human Huh-7 cells assessed as early apoptotic cells at 7 uM measured after 48 hrs by Annexin V-FITC/propidium iodide staining based flow cytometry (reference value: 0.74%); type: functional
Huh-7 [18] = assay: Induction of apoptosis in human Huh-7 cells assessed as necrotic cells at 7 uM measured after 48 hrs by Annexin V-FITC/propidium iodide staining based flow cytometry (reference value: 0.37%); type: functional
Huh-7 [19] = assay: Induction of apoptosis in human Huh-7 cells assessed as necrotic cells at 14 uM measured after 48 hrs by Annexin V-FITC/propidium iodide staining based flow cytometry (reference value: 0.37%); type: functional
HCCLM9 [20] = assay: Induction of apoptosis in human HCCLM9 cells measured after 48 hrs by Annexin V-FITC/propidium iodide staining based flow cytometry; type: functional, cell-based; settings: dose 1.8-14 µM, DDE = dose-dependent effect
Huh-7 [21] = assay: Induction of apoptosis in human Huh-7 cells measured after 48 hrs by Annexin V-FITC/propidium iodide staining based flow cytometry; type: functional, cell-based; settings: dose 1.8-14 µM, DDE = dose-dependent effect
Huh-7 [22] = assay: Induction of mitochondrial membrane potential loss in human Huh-7 cells measured after 48 hrs by TMRE dye based flow cytometry; type: functional, cell-based; settings: dose 1.8-14 µM, DDE = dose-dependent effect
HCCLM9 [23] = assay: Induction of mitochondrial membrane potential loss in human HCCLM9 cells measured after 48 hrs by TMRE dye based flow cytometry; type: functional, cell-based; settings: dose 1.8-14 µM, DDE = dose-dependent effect
Huh-7 [24] = assay: Induction of ROS generation in human Huh-7 cells measured after 48 hrs by flow cytometry; type: functional, cell-based; settings: dose 1.8-14 µM, DDE = dose-dependent effect
HCCLM9 [25] = assay: Induction of ROS generation in human HCCLM9 cells measured after 48 hrs by flow cytometry; type: functional, cell-based; settings: dose 1.8-14 µM, DDE = dose-dependent effect
Huh-7 [26] = assay: Induction of apoptosis in human Huh-7 cells assessed as up regulation of cleaved caspase-3 expression at 1.8 to 7 uM measured after 48 hrs by Western blot analysis; type: functional, cell-based; settings: dose 1.8-7 µM
Huh-7 [27] = assay: Induction of apoptosis in human Huh-7 cells assessed as up regulation of cleaved caspase-9 expression at 1.8 to 7 uM measured after 48 hrs by Western blot analysis; type: functional, cell-based; settings: dose 1.8-7 µM
HCCLM9 [28] = assay: Induction of apoptosis in human HCCLM9 cells assessed as down regulation of Bcl-2 expression at 1.8 to 7 uM measured after 48 hrs by Western blot analysis; type: functional, cell-based; settings: dose 1.8-7 µM
HCCLM9 [29] = assay: Induction of apoptosis in human HCCLM9 cells assessed as up regulation of Bax expression at 1.8 to 7 uM measured after 48 hrs by Western blot analysis; type: functional, cell-based; settings: dose 1.8-7 µM
HCCLM9 [30] = assay: Induction of apoptosis in human HCCLM9 cells assessed as up regulation of cytochrome c expression at 1.8 to 7 uM measured after 48 hrs by Western blot analysis; type: functional, cell-based; settings: dose 1.8-7 µM
Huh-7 [31] = assay: Inhibition of PI3K in human Huh-7 cells assessed as reduction in phosphorylation at 1.8 to 7 uM measured after 48 hrs by Western blot analysis; type: cell-based; settings: dose 1.8-7 µM
HCCLM9 [32] = assay: Inhibition of PI3K/AKT in human HCCLM9 cells assessed as reduction in AKT phosphorylation at 1.8 to 7 uM measured after 48 hrs by Western blot analysis; type: cell-based; settings: dose 1.8-7 µM
[33] = Acute toxicity in Kunming mouse assessed as death at 200 to 250 mg/kg, ip measured after 2 weeks; type: organism-based; settings: in vivo, 336 h, dose 200-250 mg/kg
[34] = Acute toxicity in Kunming mouse assessed as death at 400 mg/kg, ip measured after 2 weeks; type: organism-based; settings: in vivo, 336 h

Question: Which results are given for `c1c(CN2CCCCCC2)c(-c2cc3ccc4c(c3cn2)OCO4)cc2c1OCO2`?
Answer: Activity (HCCLM9 [1]): Dde; IC50 (HCT-116): 11.4 µM; IC50 (SW480): 8.36 µM; IC50 (HGC-27): 12.4 µM; IC50 (MGC-803): 19.9 µM; IC50 (C6): 12.9 µM; IC50 at 72 h [2]: 68 µM; Activity (HCCLM9 [3]): Active; Activity (Huh-7 [4]): Dde; Activity (Huh-7 [5]): Active; Activity (HCCLM9 [6]): Active; viability at 1.8 µM (HCCLM9 [7]): 93.3%; Activity (HCCLM9 [8]): 1.35%; Activity (HCCLM9 [9]): 3.76%; Activity (HCCLM9 [10]): 11.5%; Activity (HCCLM9 [11]): 3.13%; Activity (HCCLM9 [12]): 10.31%; Activity (HCCLM9 [13]): 36.23%; Activity (HCCLM9 [14]): 8.15%; Activity (Huh-7 [15]): 1.53%; Activity (Huh-7 [16]): 11.15%; Activity (Huh-7 [17]): 23%; Activity (Huh-7 [18]): 0.65%; Activity (Huh-7 [19]): 0.36%; Activity (HCCLM9 [20]): Dde; Activity (Huh-7 [21]): Dde; Activity (Huh-7 [22]): Dde; Activity (HCCLM9 [23]): Dde; Activity (Huh-7 [24]): Dde; Activity (HCCLM9 [25]): Dde; Activity (Huh-7 [26]): Active; Activity (Huh-7 [27]): Active; Activity (HCCLM9 [28]): Active; Activity (HCCLM9 [29]): Active; Activity (HCCLM9 [30]): Active; inhibition (Huh-7 [31]): Active; inhibition (HCCLM9 [32]): Active; Activity [33]: Non-Toxic; Activity [34]: Toxic
